Key:
SARS-CoV-2 Delta = assay type: cell-based
SARS-CoV-2 Omicron = assay type: cell-based

For CCN(CCO)CCCC(C)Nc1ccnc2cc(Cl)ccc12 (stereo not shown) [hydroxychloroquine], the drug-induced phospholipidosis (Vero cells) was “considerable phospholipidosis” and the drug-induced phospholipidosis (A549-ACE2 cells) was “considerable phospholipidosis”.
Cc1cc(C)nc(NC(=S)N2CCN(Cc3ccc(C(F)(F)F)cc3)CC2)c1 [NCT-503] was tested, and the “effect on SARS-CoV-2 replication in ALI HBE cultures” value (SARS-CoV-2 Delta) was “inhibited SARS-CoV-2 replication” and the “inhibition of Omicron-induced caspase 3/7 activation” value (SARS-CoV-2 Omicron) was “inhibited”.
